# From paper PMC12067350, “Discovery of Thieno[3,2‑b]pyridine-5-carboxamide and 2,3-Difluorobenzamide Negative Allosteric Modulators of Metabotropic Glutamate Receptor Subtype 5” (ACS Medicinal Chemistry Letters, 2025)
# Target: T1, CYP3A4 (Homo sapiens, UniProt P08684)
# T1 construct: from tissue; host or cells: human liver microsomes
# Test: Cytochrome P450 inhibition using human liver microsomes, CYP3A4
# Assay type: in vitro ADME
# Conditions: read-out: CYP 450 IC50, 3A4
# Description: Cytochrome P450 inhibition using Liver Microsomes.
# The ability of compounds to inhibit cytochrome P450s (CYPs) was tested using human liver microsomes and a cocktail of substrates specific for CYP1A2, 2C9, 2D6 and 3A4. Compounds were incubated at 37C in presence of human liver microsomes (0.1 mg/ml) at 30, 10, 3, 1, 0.3 and 0.1 µM. A cocktail of substrate was also added for each CYP tested: phenacetin (10 µM, CYP1A2), diclofenac (5 µM, CYP2C9), dextromethorphan (5 µM, CYP2D6) and midazolam (2 µM, CYP3A4). HLM were also incubated with the control inhibitor miconazole at 3, 1, 0.3, 0.1, 0.03 and 0.01 µM. […]
# The concentrations of CYP-specific metabolites generated at the end of the reaction were quantified by mass spectrometry using standard curves for each metabolite: acetaminophen (CYP1A2), 4-hydroxydiclofenac (CYP2C9), dextrophan (CYP2D6) and 1-hydroxymidazolam (CYP3A4). A concentration response curve for each metabolite was generated and IC50s were calculated using Prism. The LC-MS/MS transitions for metabolite quantifications are as follows. […]
# Prepared samples were injected (10 µL each) onto an AB Sciex Triple Quad 4500 mass spectrometer system with an Agilent 1260 Infinity II pump and autosampler. […] Quantitation of compounds was performed via AB Sciex Multiquant software using the raw analyte:IS peak area ratios. […]
# T1 sequence (P08684 whole entry): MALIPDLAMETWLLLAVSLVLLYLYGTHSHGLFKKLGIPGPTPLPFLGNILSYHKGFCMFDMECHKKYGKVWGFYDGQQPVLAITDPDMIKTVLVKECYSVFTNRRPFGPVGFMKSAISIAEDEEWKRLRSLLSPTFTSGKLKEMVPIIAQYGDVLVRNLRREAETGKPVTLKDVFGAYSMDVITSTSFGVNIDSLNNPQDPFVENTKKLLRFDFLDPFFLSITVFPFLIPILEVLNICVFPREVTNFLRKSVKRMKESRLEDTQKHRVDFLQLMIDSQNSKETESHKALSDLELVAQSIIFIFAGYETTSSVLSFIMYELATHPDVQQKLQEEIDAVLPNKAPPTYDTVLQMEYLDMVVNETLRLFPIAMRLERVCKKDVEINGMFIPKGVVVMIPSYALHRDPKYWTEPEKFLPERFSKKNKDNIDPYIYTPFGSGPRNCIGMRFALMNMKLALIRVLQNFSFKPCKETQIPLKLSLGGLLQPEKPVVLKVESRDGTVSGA
row,IC50 [µM],Compound
1,> 30,Cc1csc(NC(=O)c2cc(O[C@@H]3CCOC3)c3sccc3n2)n1 [19aA]
2,> 30,Cc1csc(NC(=O)c2cc(O[C@@H]3CCOC3)cc(F)c2F)n1 [27cA]
